# Test results: ChEMBL document CHEMBL1201862, “PubChem BioAssay data set” (2004)
# The source made the active and inactive calls.
# Tests used:
# [1] = M. tuberculosis H37Rv growth inhibitors, H37Rv strain (AID 1626); format: functional
# [2] = A549 cell cytotoxicity, dose response, cytotoxicity control, plate reader, cherry-pick, antagonist series (AID 743412); format: functional, cell-based
# [3] = LGR2 antagonists, dose response, cell-based, HEK293, CRE-luciferase reporter, cherry pick, set 2 (AID 743343); format: functional;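 note: transfected cells were stimulated with diluted bursicon conditioned medium after compound addition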
# [4] = target: T1, Microphthalmia-associated transcription factor (Homo sapiens, UniProt O75030); test: TRPM1 promoter luciferase signal decrease, dose response, MITF inhibitor project, cell-based, SK-MEL-5, cherry-picked, set 3 (AID 493073); format: functional
# T1 sequence (O75030 whole entry): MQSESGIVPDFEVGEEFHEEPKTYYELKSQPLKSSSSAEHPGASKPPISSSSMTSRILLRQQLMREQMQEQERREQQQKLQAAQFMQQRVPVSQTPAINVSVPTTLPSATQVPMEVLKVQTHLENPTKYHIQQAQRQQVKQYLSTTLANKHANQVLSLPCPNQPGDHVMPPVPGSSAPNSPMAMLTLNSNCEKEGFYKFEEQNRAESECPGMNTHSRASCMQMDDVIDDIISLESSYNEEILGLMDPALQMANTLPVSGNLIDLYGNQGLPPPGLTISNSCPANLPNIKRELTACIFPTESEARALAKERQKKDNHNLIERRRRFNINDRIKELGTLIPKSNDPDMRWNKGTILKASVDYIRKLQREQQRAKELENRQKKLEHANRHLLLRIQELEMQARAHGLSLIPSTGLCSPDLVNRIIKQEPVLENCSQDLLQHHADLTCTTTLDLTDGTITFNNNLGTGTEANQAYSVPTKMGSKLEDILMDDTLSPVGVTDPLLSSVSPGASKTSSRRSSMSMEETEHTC
# [5] = target: T2, Heat shock factor protein 1 (Mus musculus, UniProt P38532); test: inhibition of MG132-induced HSE-luciferase signal, confirmation, cell-based, NIH3T3, luminescence, dose retest (AID 2382); format: functional;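 note: NIH3T3 fibroblasts with HSF1-driven luciferase reporter stressed by proteasome inhibitor MG132; luminescence from HSF1-driven luciferase expression after 8 hours of MG132 stress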
# T2 sequence (P38532 whole entry): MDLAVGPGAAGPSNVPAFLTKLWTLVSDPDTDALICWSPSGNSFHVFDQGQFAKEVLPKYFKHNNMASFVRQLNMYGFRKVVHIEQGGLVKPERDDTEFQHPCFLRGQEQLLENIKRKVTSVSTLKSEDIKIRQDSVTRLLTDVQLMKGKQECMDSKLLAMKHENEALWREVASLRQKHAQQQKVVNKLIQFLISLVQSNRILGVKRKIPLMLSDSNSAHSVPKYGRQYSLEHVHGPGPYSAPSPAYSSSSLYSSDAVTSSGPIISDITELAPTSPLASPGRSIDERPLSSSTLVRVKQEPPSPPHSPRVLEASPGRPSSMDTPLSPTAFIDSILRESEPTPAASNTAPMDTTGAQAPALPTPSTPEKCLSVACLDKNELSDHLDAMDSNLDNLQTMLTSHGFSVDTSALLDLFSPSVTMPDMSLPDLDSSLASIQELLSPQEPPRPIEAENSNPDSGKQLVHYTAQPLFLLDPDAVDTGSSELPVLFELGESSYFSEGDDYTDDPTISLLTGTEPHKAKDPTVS
# [6] = inhibitors of firefly luciferase expression or activity, dose response, H4 neuroglioma cells, luminescence (AID 1990); format: functional, cell-based
# [7] = target: Photoreceptor-specific nuclear receptor (Homo sapiens, UniProt Q9Y5X4); format: functional, cell-based;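 note: CHO-S cells with Gal4-NCOR and VP16-NR2E3 two-hybrid luciferase reporter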
# Photoreceptor-specific nuclear receptor, sequence (Q9Y5X4 whole entry, the tested form may be a part): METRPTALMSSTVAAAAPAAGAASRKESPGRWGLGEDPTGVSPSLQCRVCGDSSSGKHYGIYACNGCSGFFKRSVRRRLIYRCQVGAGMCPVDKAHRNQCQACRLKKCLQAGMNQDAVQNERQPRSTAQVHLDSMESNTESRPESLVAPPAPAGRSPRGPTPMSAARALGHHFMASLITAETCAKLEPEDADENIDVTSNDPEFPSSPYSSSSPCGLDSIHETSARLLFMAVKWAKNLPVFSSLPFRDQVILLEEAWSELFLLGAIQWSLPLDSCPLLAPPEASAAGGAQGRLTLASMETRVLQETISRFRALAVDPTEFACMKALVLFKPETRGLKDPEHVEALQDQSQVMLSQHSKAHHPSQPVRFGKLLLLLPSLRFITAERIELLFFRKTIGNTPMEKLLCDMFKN
# [8] = MC4R antagonists, dose response, counter-screen for LGR2 antagonist project, cell-based, plate reader, cherry pick (AID 743444); format: functional;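 note: transfected HEK 293 cells stimulated with alpha-MSH peptide; potency of inhibitors of the alpha-MSH evoked signal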
# [9] = target: NAD-dependent protein deacylase sirtuin-5, mitochondrial (Homo sapiens, UniProt Q9NXA8); test: SIRT5 desuccinylase inhibitors, dose response, biochemical, fluorescence imaging, cherry-pick, set 5 (AID 720591);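 note: desuccinylation of succinyl peptide AMC substrate read as fluorescence after trypsin release; potency of inhibitors that lower fluorescence and may act on trypsin instead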
# NAD-dependent protein deacylase sirtuin-5, mitochondrial, sequence (Q9NXA8 whole entry): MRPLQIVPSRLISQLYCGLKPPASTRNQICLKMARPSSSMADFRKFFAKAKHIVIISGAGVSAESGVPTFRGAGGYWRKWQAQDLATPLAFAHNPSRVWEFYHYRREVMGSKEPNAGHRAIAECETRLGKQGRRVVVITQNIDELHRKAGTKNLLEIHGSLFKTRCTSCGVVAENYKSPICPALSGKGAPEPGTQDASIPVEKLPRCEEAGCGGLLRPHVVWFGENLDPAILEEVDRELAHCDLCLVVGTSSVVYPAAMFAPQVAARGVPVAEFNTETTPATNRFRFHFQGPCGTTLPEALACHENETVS
# [10] = ADAM10 inhibitors, peptide cleavage, dose response, biochemical, QFRET (AID 743254);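 note: ADAM10 enzyme with the DM2 quenched FRET peptide as substrate; EDANS fluorescence gain as the protease cuts the substrate; inhibitor potency against ADAM10 proteolytic activity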
# [11] = Luminescence Cell-Based Dose Retest to Confirm Inhibitors of Cancer Stem Cells. [Related pubchem assays (depositor defined):AID2717, AID2721]; format: functional; conditions: Homo sapiens
# [12] = target: Disintegrin and metalloproteinase domain-containing protein 17 (Homo sapiens, UniProt P78536); test: ADAM17 protease inhibitors, dose response, counter-screen for ADAM10 exosite inhibitor project, biochemical, quenched FRET substrate (AID 743253)
# Disintegrin and metalloproteinase domain-containing protein 17, sequence (P78536 whole entry, the tested form may be a part): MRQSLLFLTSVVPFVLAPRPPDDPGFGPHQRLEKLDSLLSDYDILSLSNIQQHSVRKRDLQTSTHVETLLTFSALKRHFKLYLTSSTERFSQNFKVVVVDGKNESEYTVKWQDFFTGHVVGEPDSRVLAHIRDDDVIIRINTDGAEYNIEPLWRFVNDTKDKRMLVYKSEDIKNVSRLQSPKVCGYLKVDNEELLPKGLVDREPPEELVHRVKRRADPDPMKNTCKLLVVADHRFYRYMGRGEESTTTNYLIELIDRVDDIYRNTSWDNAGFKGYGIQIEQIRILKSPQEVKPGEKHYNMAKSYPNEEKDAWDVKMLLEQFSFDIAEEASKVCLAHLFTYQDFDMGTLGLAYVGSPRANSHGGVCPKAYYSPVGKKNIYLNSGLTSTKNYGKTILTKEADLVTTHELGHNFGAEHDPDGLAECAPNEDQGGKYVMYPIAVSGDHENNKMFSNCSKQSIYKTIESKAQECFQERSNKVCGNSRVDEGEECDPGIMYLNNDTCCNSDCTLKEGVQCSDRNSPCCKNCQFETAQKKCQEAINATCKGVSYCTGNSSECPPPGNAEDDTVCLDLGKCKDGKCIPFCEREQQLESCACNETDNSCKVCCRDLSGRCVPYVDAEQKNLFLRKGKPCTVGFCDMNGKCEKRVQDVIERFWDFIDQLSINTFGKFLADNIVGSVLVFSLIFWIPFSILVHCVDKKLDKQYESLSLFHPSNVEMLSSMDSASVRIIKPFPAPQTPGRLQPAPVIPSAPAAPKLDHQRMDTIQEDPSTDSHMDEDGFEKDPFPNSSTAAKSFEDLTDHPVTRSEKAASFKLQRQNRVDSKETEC
# [13] = target: T2, Heat shock factor protein 1; test: HSF1 potentiators in luciferase reporter cells, confirmation, cell-based, NIH3T3, luminescence, dose retest (AID 435004); format: functional;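 note: stress induced by proteasome inhibitor MG132 added 30 min after compound; luciferase reporter driven by HSF1 response element in NIH3T3 cells; actives raise luminescence as potentiators of the MG132 stress response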
# [14] = growth suppression of beta-catenin-knockout colon cells, dose response, cell-based, HCT116, human colon tumor (AID 1045); format: functional;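 note: HCT116 colon tumor cells with beta catenin knocked out; cells exposed to compound for 60 hours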
# [15] = HEp-2 cell cytotoxicity, dose response, cytotoxicity control for RSV inhibitor project, HTS (AID 2410); format: functional; conditions: human respiratory syncytial virus
# [16] = growth suppression of PTEN-null colon cells, dose response, cell-based, HCT116 PTEN knockout (AID 1047); format: functional;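 note: HCT116 colon tumor cells with PTEN knocked out; cells exposed to compound for 60 hours before readout; potency for loss of cell viability measured by luminescence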
# [17] = target: T3, Mitochondrial peptide methionine sulfoxide reductase (Bos taurus, UniProt P54149); test: Absorbance-based biochemical high throughput dose response assay for activators of Methionine sulfoxide reductase A (MsrA).; format: functional
# T3 sequence (P54149 whole entry): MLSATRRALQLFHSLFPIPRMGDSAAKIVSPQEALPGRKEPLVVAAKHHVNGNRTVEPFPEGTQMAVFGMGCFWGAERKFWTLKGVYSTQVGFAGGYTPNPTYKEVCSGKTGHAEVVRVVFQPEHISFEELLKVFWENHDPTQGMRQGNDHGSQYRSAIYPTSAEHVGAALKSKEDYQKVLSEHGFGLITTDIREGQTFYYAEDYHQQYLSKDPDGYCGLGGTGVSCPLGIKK
# [18] = HepG2 cell cytotoxicity, dose response, cytotoxicity control, plate reader, cherry-pick, antagonist series (AID 743416); format: functional, cell-based
# [19] = HEK293 cell cytotoxicity, dose response, cytotoxicity control, plate reader, cherry-picked samples (AID 743446); format: functional, cell-based
# [20] = inhibitors of intracellular T. cruzi replication, confirmation, NIH3T3 host cells, beta-gal luminescence (AID 2044); format: functional, cell-based;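 note: intracellular parasites grown in NIH/3T3 mouse fibroblasts as host cells; luminescent beta-galactosidase reporter signal from transgenic T. cruzi replicating inside host cells; inhibitors lower the luminescence signal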
# [21] = cytotoxicity toward NIH3T3 fibroblasts, dose response, counter-screen, cell-based, ATP luminescence, mouse fibroblasts (AID 2010); format: functional;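 note: cells exposed to compound for about 90 hours before reading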
# [22] = target: T4, Endoribonuclease toxin MazF (Escherichia coli K-12, UniProt P0AE70); test: fluorescent RNA oligo signal without MazF, dose response, counter-screen for MazEF activator project, biochemical, fluorescence, single-stranded RNase substrate (AID 588502); format: functional
# T4 sequence (P0AE70 whole entry): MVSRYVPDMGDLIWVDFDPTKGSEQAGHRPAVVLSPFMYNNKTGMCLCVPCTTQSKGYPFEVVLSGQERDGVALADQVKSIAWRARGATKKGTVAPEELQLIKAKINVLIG
# [23] = target: T4, Endoribonuclease toxin MazF; test: MazF toxin RNase activators, dose response, biochemical, fluorescence, single-stranded RNA substrate, uHTS hits (AID 588481); format: functional
# [24] = target: T5, DNA repair and recombination protein RAD54-like (Homo sapiens, UniProt Q92698); test: inhibitors of human RAD54 branch migration, confirmation, biochemical, fluorescence, cherry-picked samples, dose series (AID 651657); format: functional
# T5 sequence (Q92698 whole entry): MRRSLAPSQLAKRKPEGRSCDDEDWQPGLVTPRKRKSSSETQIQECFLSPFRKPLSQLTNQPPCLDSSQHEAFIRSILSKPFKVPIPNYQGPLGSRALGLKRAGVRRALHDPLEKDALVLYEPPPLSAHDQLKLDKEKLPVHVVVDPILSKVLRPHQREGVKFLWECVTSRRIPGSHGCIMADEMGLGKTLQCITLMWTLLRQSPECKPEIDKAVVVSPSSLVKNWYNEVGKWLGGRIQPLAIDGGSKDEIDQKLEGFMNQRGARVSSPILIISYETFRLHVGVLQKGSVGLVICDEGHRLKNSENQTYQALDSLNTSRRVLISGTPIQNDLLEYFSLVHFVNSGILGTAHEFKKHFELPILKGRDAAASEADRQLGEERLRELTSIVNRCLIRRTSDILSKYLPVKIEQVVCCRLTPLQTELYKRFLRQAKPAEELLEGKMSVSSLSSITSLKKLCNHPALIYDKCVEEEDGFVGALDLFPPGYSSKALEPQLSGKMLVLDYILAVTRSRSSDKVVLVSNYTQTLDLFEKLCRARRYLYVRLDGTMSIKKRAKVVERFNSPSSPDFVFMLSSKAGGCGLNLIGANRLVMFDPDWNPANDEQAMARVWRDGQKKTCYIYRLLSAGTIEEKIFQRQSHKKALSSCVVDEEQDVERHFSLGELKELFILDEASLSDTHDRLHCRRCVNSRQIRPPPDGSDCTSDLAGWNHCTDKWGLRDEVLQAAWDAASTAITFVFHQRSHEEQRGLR
# Vero = test: cells; format: functional; conditions: Chlorocebus sabaeus
# [25] = target: T6, Ubiquitin-conjugating enzyme E2 N (Homo sapiens, UniProt P61088); format: functional;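 note: Dose-response confirmation in a TR-FRET assay detecting UBC13-driven polyubiquitin chain formation, inhibition measured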
# T6 sequence (P61088 whole entry): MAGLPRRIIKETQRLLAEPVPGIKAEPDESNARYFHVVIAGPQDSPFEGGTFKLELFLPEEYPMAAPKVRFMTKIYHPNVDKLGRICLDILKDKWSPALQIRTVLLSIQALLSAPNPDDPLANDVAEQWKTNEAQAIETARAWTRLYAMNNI
# [26] = target: T7, Polyadenylate-binding protein 1 (Homo sapiens, UniProt P11940); test: PABP1 MLLE–PAM2 binding inhibitor potency, dose response, biochemical, fluorescence polarization, FITC-PAM2 peptide (AID 602259); format: functional; conditions: read-out: IC50_Mean
# T7 sequence (P11940 whole entry): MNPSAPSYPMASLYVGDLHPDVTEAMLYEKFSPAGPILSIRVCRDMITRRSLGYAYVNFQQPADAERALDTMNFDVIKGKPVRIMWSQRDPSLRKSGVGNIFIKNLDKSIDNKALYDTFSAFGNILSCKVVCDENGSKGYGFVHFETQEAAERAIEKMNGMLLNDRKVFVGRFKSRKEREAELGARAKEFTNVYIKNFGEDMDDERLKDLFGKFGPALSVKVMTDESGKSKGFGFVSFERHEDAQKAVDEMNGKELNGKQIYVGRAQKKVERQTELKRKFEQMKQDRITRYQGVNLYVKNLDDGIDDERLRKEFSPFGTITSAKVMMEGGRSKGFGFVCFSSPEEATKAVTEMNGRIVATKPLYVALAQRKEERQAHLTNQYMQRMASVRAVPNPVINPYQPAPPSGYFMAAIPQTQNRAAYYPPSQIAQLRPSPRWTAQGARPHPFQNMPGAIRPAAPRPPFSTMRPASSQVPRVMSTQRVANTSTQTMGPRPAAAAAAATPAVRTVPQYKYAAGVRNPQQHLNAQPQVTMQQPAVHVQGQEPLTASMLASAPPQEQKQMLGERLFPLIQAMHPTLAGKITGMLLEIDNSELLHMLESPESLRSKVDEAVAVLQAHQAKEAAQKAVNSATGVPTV
# [27] = target: T7, Polyadenylate-binding protein 1; test: PABP1 MLLE–PAM2 interaction inhibitors, dose response, miRNA deadenylation inhibitor project, biochemical, fluorescence polarization, Cy5-PAM2 peptide, secondary (AID 602260); format: functional; conditions: read-out: IC50_Mean
compound,measurement,setting,value
CCc1ccc(NC(=O)CSc2nnc(-c3ccccn3)n2C)cc1,IC50,[1],> 100 µM (active)
Cc1cc(C(=O)CSc2nnc3ccccn23)c(C)n1-c1ccccc1,AC50,[2],> 52 µM (inactive)
same,AC50,[3],1.06 µM (active)
same,AC50,[4],2.08 µM (active)
same,EC50,[5],< 0.16 µM (active)
same,EC50,[6],0.844 µM (active)
same,IC50,[7],14.4 µM (inactive)
same,AC50,[8],1.39 µM (active)
CNC(=O)CSc1nnc(-c2ccco2)n1-c1cccc(C)c1,AC50,[9],> 30 µM (inactive)
Cc1ccccc1/N=C1\SC(CC(=O)Nc2ccc3ccccc3c2)C(=O)N1Cc1ccccn1 (stereo unspecified),IC50,[10],12.5 µM (inactive)
same,AC50,[11],4.16 µM (active)
same,IC50,[12],> 69.5 µM (inactive)
same,EC50,[13],> 120 µM (inactive)
CCOC(=O)c1cc(-c2cc(OC)c(OC)c(OC)c2)nc2c1c(=O)[nH]c(=O)n2Cc1ccccc1,AC50,[9],> 30 µM (inactive)
CCCN(CC1CC1)C(=O)COC(=O)c1ccc2c(c1)C(=O)N(c1ccc(OCC)cc1)C2=O,IC50,[1],> 100 µM (active)
COc1ccc(/C=C/C(=O)c2ccc(C)c([N+](=O)[O-])c2)cc1O,EC50,[14],4.65 µM (active)
same,IC50,[1],> 100 µM (active)
same,CC50,[15],15.8 µM (active)
same,EC50,[16],5.39 µM (active)
CC(=O)N1c2ccc(S(=O)(=O)NCCC(=O)NC3CCC(C)CC3)cc2CC1C (stereo unspecified),AC50,[9],> 30 µM (inactive)
COc1ccc(CCCNC(=O)C2CCC(=O)N(Cc3ccc(Cl)cc3)C2)cc1 (stereo unspecified),AC50,[9],> 30 µM (inactive)
CCCCC(=O)NNC(=S)NC(=O)c1ccc([N+](=O)[O-])cc1,EC50,[17],> 104 µM (inactive)
O=S(=O)(CC(CN1CCCCC1)N1CCCCC1)c1ccc2ccccc2c1 (stereo unspecified),AC50,[2],11.6 µM (active)
same,AC50,[3],22.3 µM (active)
same,AC50,[4],12.5 µM (active)
same,AC50,[18],14.6 µM (active)
same,AC50,[19],18.8 µM (active)
same,EC50,[13],13.9 µM (active)
same,EC50,[20],2.65 µM (active)
same,EC50,[21],> 60 µM (not active)
same,AC50,[8],14 µM (active)
O=C(c1cc(S(=O)(=O)N2CCN(c3ccccc3)CC2)ccc1Cl)N1CCCCCCC1,IC50,[7],5.5 µM (active)
CCOC(=O)C1=C(C)N=c2s/c(=C/c3ccccc3)c(=O)n2C1c1ccc(OC)c(OC)c1 (stereo unspecified),EC50,[22],> 99 µM (inactive)
same,EC50,[23],> 99 µM (inactive)
CC(O)(c1ccccc1)c1nc(-c2cc3ccccc3o2)cs1 (stereo unspecified),IC50,[10],17.2 µM (inactive)
same,IC50,[12],> 69.5 µM (inactive)
Cc1ccc(-c2nc(N(C)C3CCN(C)CC3)c3ccccc3n2)cc1,AC50,[24],3.93 µM (active)
same,EC50,[14],6.51 µM (active)
same,CC50,Vero,16.3 µM (active)
same,EC50,[16],6.77 µM (active)
COc1ccc(-c2cc(C)no2)cc1S(=O)(=O)N1CCOc2ccc(C)cc21,EC50,[22],> 99 µM (inactive)
same,EC50,[23],> 99 µM (inactive)
Oc1ccc(C[C@H]2CNC(=S)N2C[C@H]2CCCN2C[C@H](Cc2ccccc2)N2C[C@H](Cc3ccc(O)cc3)N(CCc3ccccc3)C2=S)cc1,IC50,[10],15.1 µM (inactive)
same,IC50,[12],> 69.5 µM (inactive)
COc1cccc(NC(=O)c2ccc(-c3ccc([N+](=O)[O-])cc3)o2)c1,EC50,[22],> 99 µM (inactive)
same,EC50,[23],> 99 µM (inactive)
CCCCN(CC)CCCNC(=O)c1cc2c(=O)n(C)c3ccccc3c2n1C,IC50,[25],> 20 µM (inactive)
same,AC50,[24],22.2 µM (active)
O=C(c1ccc(CSc2nc3cc[nH]cc-3n2)cc1)N1CCN(c2cccc(Cl)c2)CC1,AC50,[2],38 µM (active)
same,AC50,[18],32.6 µM (active)
same,AC50,[19],50.4 µM (active)
same,EC50,[20],1.39 µM (active)
same,EC50,[21],> 60 µM (not active)
COCc1cc(=O)[nH]c(=S)[nH]1,EC50,[17],> 104 µM (inactive)
same,IC50,[26],> 66 µM (inactive)
same,IC50,[27],> 66 µM (inactive)
